From patent US9585975B2, “MRI contrast agents” (NORTHWESTERN UNIVERSITY, priority 2012, dated 2017)
Values joined by “and” are separate entries in the source; they are usually repeats but may differ in a detail not shown here. Identical values can stand only once. Like-named read-outs stand apart in the source and are kept apart here.

Assays:
[1] = Relaxivity determination of free (unbound) contrast agents; assay type: physicochemical; conditions: 37° C.
Experimental: The relaxation rates and Gd(III) concentrations were determined for contrast agent solutions in a range of concentrations. The relaxation rates of small molecule contrast agents were investigated using a 4 mM starting solution in water and diluted 1:1 four times. […] Relaxation rates were determined using a 60 MHz (1.5 T) NMR analyzer (Bruker Minispec MQ60) at 37° C. using 500 μL in a 7.5 mm inner diameter NMR tubes. T1 relaxation times were determined using monoexponential curve fitting and an inversion recovery pulse sequence with four averages for each of 10 data points.

HaloTag protein = conditions: 37° C.
Experimental: The HaloTag protein was expressed recombinantly after subcloning the target protein into the vector pMCSG7 to include an N-terminal His6-Tag followed by a TEV protease cleavage site. The protein was expressed in BL21(DE3) cells and purified by Nickel affinity chromatography. […] The HaloTag protein was labeled with a 5-fold molar excess of the Gd(III) complex at 4 degrees C. overnight. […] The labeled proteins were concentrated to a starting concentration of ˜600 μM for all relaxivity analyses.
Longitudinal relaxivities of the unbound agents were determined in water and the protein-bound contrast agents in 10 mM MOPS at 1.5 T, 37_C (Table 1).
To prepare the protein-bound contrast agent 12.5 mg protein was incubated overnight at 4° C. with five equivalents haloalkane label. Excess label was removed by size-exclusion chromatography (Econo-Pac 10 DG Disposable Chromatography Columns) and dialysis overnight into 10 mM MOPS, pH 7.4 (Spectrum Spectra/Por 4 Dialysis Membrane Tubing 12-14K MWCO) at 4° C. The protein-bound contrast agent was concentrated to a starting concentration of ˜600 μM for all relaxivity assays (Amicon Ultra-4, PLGC Ultracel-PL Membrane, 10 kDa). Agent binding was detected by mass spectrometry (Agilent 6510 Accurate-Mass Q-TOF LC/MS) and data deconvolution was performed with the included software (Agilent MassHunter Qualitative Analysis).
The relaxation rates and Gd(III) concentrations were determined for contrast agent solutions in a range of concentrations. The relaxation rates of small molecule contrast agents were investigated using a 4 mM starting solution in water and diluted 1:1 four times. Relaxation rates of protein bound contrast agents were measured using 600 μM starting solution in 10 mM MOPS and was diluted 1:1 four times. Relaxation rates were determined using a 60 MHz (1.5 T) NMR analyzer (Bruker Minispec MQ60) at 37° C. using 500 μL in a 7.5 mm inner diameter NMR tubes. T1 relaxation times were determined using monoexponential curve fitting and an inversion recovery pulse sequence with four averages for each of 10 data points.
Gd(III) concentrations for all samples were measured by ICP-MS. Samples were prepared by dissolving 10 μL into 90 μL trace nitric acid, and diluted to 10 mL with ultrapure water (nitric acid was added to generate a 3% solution. Samples contained a multi-element internal standard consisting of 5 ppb each Bi, Ho, In, Li(6), Sc, Tb, and Y (Spex Certiprep, Metuchen, N.J., USA). ICP-MS was performed on a computer-controlled (Plasmalab software) Thermo X series II ICP-MS (Thermo Fisher Scientific, Waltham, Mass., USA) equipped with an ESI SC-2 autosampler (Omaha, Nebr., USA). Each sample was acquired using 1 survey run (10 sweeps) and 3 main (peak jumping) runs (100 sweeps).

[2] = 1.5 T, 37 degrees C.; cited from earlier work
HSA = HSA (Homo sapiens, UniProt P02768); conditions: 1.5 T, 37 degrees C.; cited from earlier work
Chain of HSA (P02768 25-609): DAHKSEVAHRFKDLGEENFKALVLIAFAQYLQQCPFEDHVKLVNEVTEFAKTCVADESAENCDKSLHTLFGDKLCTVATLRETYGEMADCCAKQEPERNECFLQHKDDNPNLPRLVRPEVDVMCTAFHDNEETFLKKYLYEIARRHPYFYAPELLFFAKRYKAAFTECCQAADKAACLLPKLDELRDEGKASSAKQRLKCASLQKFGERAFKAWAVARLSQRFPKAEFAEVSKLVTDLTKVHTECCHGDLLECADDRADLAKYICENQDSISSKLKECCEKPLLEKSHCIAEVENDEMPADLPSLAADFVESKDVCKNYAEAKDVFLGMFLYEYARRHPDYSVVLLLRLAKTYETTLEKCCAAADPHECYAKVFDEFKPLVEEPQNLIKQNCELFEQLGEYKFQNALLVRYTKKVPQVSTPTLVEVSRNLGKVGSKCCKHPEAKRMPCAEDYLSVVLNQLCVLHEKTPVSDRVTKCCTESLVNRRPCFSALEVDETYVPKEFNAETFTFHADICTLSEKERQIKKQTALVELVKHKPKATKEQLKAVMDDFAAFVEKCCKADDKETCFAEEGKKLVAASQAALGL

SMILES: O=C([O-])CN1CCN(CC(=O)[O-])CCN(CC(=O)NCCOCCOCCCCCCCl)CCN(CC(=O)[O-])CC1.[Gd+3] [1CHTGd]
- r2 - F (transverse relaxivity, free) ([1]; 60 MHz): 4.1 ± 0.2 mM⁻¹ s⁻¹
- r1 - F (longitudinal relaxivity, free) ([1]; 400 MHz): 3.2 ± 0.1 mM⁻¹ s⁻¹
- r2 - F (transverse relaxivity, free) ([1]; 400 MHz): 4.0 ± 0.1 mM⁻¹ s⁻¹
- r1 - PB (longitudinal relaxivity, protein-bound) (HaloTag protein; 60 MHz (1.5 T), 10 mM MOPS): 13.4 ± 1.3 mM⁻¹ s⁻¹
- r2 - PB (transverse relaxivity, protein-bound) (HaloTag protein; 60 MHz): 25.2 ± 2.6 mM⁻¹ s⁻¹
- r1 - PB (longitudinal relaxivity, protein-bound) (HaloTag protein; 400 MHz): 4.0 ± 0.2 mM⁻¹ s⁻¹
- r2 - PB (transverse relaxivity, protein-bound) (HaloTag protein; 400 MHz): 28 ± 2 mM⁻¹ s⁻¹

SMILES: O=C([O-])CN1CCN(CCC(=O)NCCOCCOCCCCCCCl)CCN(CC(=O)[O-])CCN(CC(=O)[O-])CC1.[Gd+3] [2CHTGd]
- r2 - F (transverse relaxivity, free) ([1]; 60 MHz): 3.9 ± 0.5 mM⁻¹ s⁻¹
- r1 - F (longitudinal relaxivity, free) ([1]; 400 MHz): 3.3 ± 0.1 mM⁻¹ s⁻¹
- r2 - F (transverse relaxivity, free) ([1]; 400 MHz): 4.1 ± 0.1 mM⁻¹ s⁻¹
- r1 - PB (longitudinal relaxivity, protein-bound) (HaloTag protein; 60 MHz (1.5 T), 10 mM MOPS): 22.0 mM⁻¹ s⁻¹ and 22.0 ± 2.2 mM⁻¹ s⁻¹
- r2 - PB (transverse relaxivity, protein-bound) (HaloTag protein; 60 MHz): 45.3 ± 5.5 mM⁻¹ s⁻¹
- r1 - PB (longitudinal relaxivity, protein-bound) (HaloTag protein; 400 MHz): 5.1 ± 0.7 mM⁻¹ s⁻¹
- r2 - PB (transverse relaxivity, protein-bound) (HaloTag protein; 400 MHz): 56 ± 8 mM⁻¹ s⁻¹

SMILES: O=C([O-])CN1CCN(CCCC(=O)NCCOCCOCCCCCCCl)CCN(CC(=O)[O-])CCN(CC(=O)[O-])CC1.[Gd+3] [3CHTGd]
- r2 - F (transverse relaxivity, free) ([1]; 60 MHz): 5.8 ± 0.1 mM⁻¹ s⁻¹
- r1 - F (longitudinal relaxivity, free) ([1]; 400 MHz): 6.0 ± 0.2 mM⁻¹ s⁻¹
- r2 - F (transverse relaxivity, free) ([1]; 400 MHz): 4.9 ± 0.2 mM⁻¹ s⁻¹
- r1 - PB (longitudinal relaxivity, protein-bound) (HaloTag protein; 60 MHz (1.5 T), 10 mM MOPS): 7.6 ± 0.7 mM⁻¹ s⁻¹
- r2 - PB (transverse relaxivity, protein-bound) (HaloTag protein; 60 MHz): 13.1 ± 0.9 mM⁻¹ s⁻¹
- r1 - PB (longitudinal relaxivity, protein-bound) (HaloTag protein; 400 MHz): 2.7 ± 0.1 mM⁻¹ s⁻¹
- r2 - PB (transverse relaxivity, protein-bound) (HaloTag protein; 400 MHz): 15.9 ± 0.1 mM⁻¹ s⁻¹

SMILES: O=C([O-])CN1CCN(CCCCC(=O)NCCOCCOCCCCCCCl)CCN(CC(=O)[O-])CCN(CC(=O)[O-])CC1.[Gd+3] [4CHTGd]
- r2 - F (transverse relaxivity, free) ([1]; 60 MHz): 6.5 ± 0.5 mM⁻¹ s⁻¹
- r1 - F (longitudinal relaxivity, free) ([1]; 400 MHz): 5.6 ± 0.2 mM⁻¹ s⁻¹
- r2 - F (transverse relaxivity, free) ([1]; 400 MHz): 6.9 ± 0.2 mM⁻¹ s⁻¹
- r1 - PB (longitudinal relaxivity, protein-bound) (HaloTag protein; 60 MHz (1.5 T), 10 mM MOPS): 8.6 ± 1.1 mM⁻¹ s⁻¹
- r2 - PB (transverse relaxivity, protein-bound) (HaloTag protein; 60 MHz): 15.9 ± 2.3 mM⁻¹ s⁻¹
- r1 - PB (longitudinal relaxivity, protein-bound) (HaloTag protein; 400 MHz): 3.3 ± 0.2 mM⁻¹ s⁻¹
- r2 - PB (transverse relaxivity, protein-bound) (HaloTag protein; 400 MHz): 19.6 ± 1.3 mM⁻¹ s⁻¹

SMILES: O=C([O-])CN(CCN(CC(=O)[O-])C[C@H](COP(=O)([O-])OC1CCC(c2ccccc2)(c2ccccc2)CC1)N(CC(=O)[O-])CC(=O)[O-])CC(=O)[O-].[Gd+3].[H+].[H+].[H+] [MS-325]
- relaxivity, unbound [2]: 5.5 mM⁻¹ s⁻¹
- relaxivity when bound to HSA (HSA): 25 mM⁻¹ s⁻¹
